Earlier results in patent US20090192228A1 (ACTAVIS GROUP PTC EHF, priority 2008, published 2009).

Conditions: compared with oxybutynin

Question: For `CC(C)N(CCC(c1ccccc1)c1cc(CO)ccc1O)C(C)C` (stereo not shown), which “Side-effects relative to oxybutynin, particularly propensity to cause dry mouth” value is on record?
Answer: Its value is “considerably fewer side-effects”.
